{"source": "patent US6156700A", "about": "“3-(1,2-Benzisothiazol- and isoxazol-5-yl)-2,4(1H,3H)-pyrimidinedione or thione and 3-(1,2-benzisothiazol- and isoxazol-5-yl)-4(3H)-pyrimidinone or thione herbicidal agents” (American Cyanmid Company, priority 1998, dated 2000)", "key": {"Corn, Field, Zea mays [1]": {"test_system": "Corn, Field, Zea mays", "assay": "Preemergence herbicidal evaluation, ZEAMX", "format": "in vivo, L.", "conditions": "0.2500 kg/ha", "method_in_brief": "(§1)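 Preemergence spray, aqueous acetone solution, ~0.0156–0.500 kg/ha, applied to freshly seeded soil cups. Greenhouse, 4–5 wk. Visual 0–9 rating vs untreated control (stand, vigor, malformation, size, chlorosis, overall appearance).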"}, "[2]": {"test_system": "Sicklepod, Cassia obtusifolia", "assay": "Preemergence herbicidal evaluation, CASOB", "format": "in vivo, L.", "conditions": "0.2500 kg/ha", "method_in_brief": "as §1"}, "ORYSAT Rice, Tebonnet [3]": {"test_system": "ORYSAT Rice, Tebonnet", "assay": "Tolerance of transplanted rice to post-transplant application (Table III)", "format": "in vivo, Oryza sativa", "design": "scale not given here", "conditions": "crop tolerance", "method_in_brief": "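Two ten-day-old Tebonnet seedlings were transplanted into flooded silt loam, with water kept 1.5–3 cm above the soil. Three days after transplanting, the flooded surface was treated with compound in 50/50 aqueous/acetone at about 0.0313–0.500 kg/ha. Injury was rated in the greenhouse 3–4 weeks after treatment.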"}, "[4]": {"test_system": "ECHORC Watergrass (Calif.)", "assay": "Preemergence weed control, flooded paddy (Table III)", "format": "in vivo, Echinochloa oryzoides", "design": "scale not given here", "method_in_brief": "(§2)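 Seeds or propagules sown in silt loam under 1.5 to 3 cm standing flood water; compound in 50/50 aqueous/acetone pipetted into the water at about 0.0313 to 0.500 kg/ha active ingredient. Greenhouse-held; herbicidal effect rated on a scale 3-4 weeks after treatment.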"}, "[5]": {"test_system": "Wheat, Winter, cv Riband, Triticum aestivum", "assay": "Preemergence herbicidal evaluation, TRZAWR", "format": "in vivo", "conditions": "0.2500 kg/ha", "method_in_brief": "as §1"}, "[6]": {"test_system": "Rice, Tebonnet, Oryza sativa", "assay": "Preemergence herbicidal evaluation, ORYSAT", "format": "in vivo, (L.) Tebonnet", "conditions": "0.2500 kg/ha", "method_in_brief": "as §1"}, "Corn, Field, Zea mays [7]": {"test_system": "Corn, Field, Zea mays", "assay": "Postemergence herbicidal evaluation, ZEAMX", "format": "in vivo, L.", "conditions": "0.2500 kg/ha", "method_in_brief": "(§3)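 Roughly two-week-old seedlings sprayed with compound dispersed in 50/50 acetone/water plus 0.5% TWEEN 20, delivering about 0.0157 to 0.500 kg active per hectare through a nozzle at 40 psi. Kept in greenhouse; visually rated 4–5 weeks after treatment on a 0–9 scale (stand, vigor, malformation, size, chlorosis) versus control, replicate tests averaged.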"}, "ORYSAT Rice, Tebonnet [8]": {"test_system": "ORYSAT Rice, Tebonnet", "assay": "Rice tolerance, flooded paddy (Table IV)", "format": "in vivo, Oryza sativa", "design": "scale not given here", "conditions": "crop tolerance", "method_in_brief": "(§4)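 Weeds 3–5 cm tall and rice at 1.5–2.5 leaf stage in flooded containers, water held 1.5–3 cm above soil. Compounds in 50/50 aqueous/acetone applied into flood water at about 0.0313–0.500 kg/ha. Herbicidal effect rated visually three to four weeks after treatment.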"}, "[9]": {"test_system": "Morningglory Spp., Ipomoea Spp.", "assay": "Postemergence herbicidal evaluation, IPOSS", "format": "in vivo", "conditions": "0.2500 kg/ha", "method_in_brief": "as §3"}, "[10]": {"test_system": "SAGPY Arrowhead (Pygmaea)", "assay": "Preemergence weed control, flooded paddy (Table III)", "format": "in vivo, Sagittaria pygmaea", "design": "scale not given here", "method_in_brief": "as §2"}, "CYPIR Rice Flatsedge": {"test_system": "CYPIR Rice Flatsedge", "assay": "Preemergence weed control, flooded paddy (Table III)", "format": "in vivo, Cyperus iria", "design": "scale not given here", "method_in_brief": "as §2"}, "[11]": {"test_system": "Ragweed, Common, Ambrosia artemisifolia", "assay": "Postemergence herbicidal evaluation, AMBEL", "format": "in vivo, L.", "conditions": "0.2500 kg/ha", "method_in_brief": "as §3"}, "[12]": {"test_system": "Sicklepod, Cassia obtusifolia", "assay": "Postemergence herbicidal evaluation, CASOB", "format": "in vivo, L.", "conditions": "0.2500 kg/ha", "method_in_brief": "as §3"}, "[13]": {"test_system": "Wheat, Winter, cv Riband, Triticum aestivum", "assay": "Postemergence herbicidal evaluation, TRZAWR", "format": "in vivo", "conditions": "0.2500 kg/ha", "method_in_brief": "as §3"}, "[14]": {"test_system": "ECHORC Watergrass (Calif.)", "assay": "Postemergence weed control, flooded paddy (Table IV)", "format": "in vivo, Echinochloa oryzoides", "design": "scale not given here", "method_in_brief": "as §4"}}}
{"smiles": "CCc1ccc(-c2nsc3ccc(-n4c(=O)cc(C(F)(F)F)n(C)c4=O)cc23)cc1", "note": "[Compound 5, 3-[3-(p-Ethylphenyl)-1,2-benzisothiazol-5-yl]-1-methyl-6-(trifluoromethyl)-2,4 (1H,3H)-pyrimidinedione]", "values": [{"measurement": "herbicide rating (0-9)", "setting": "Corn, Field, Zea mays [1]", "result": 3.0}, {"measurement": "herbicide rating (0-9)", "setting": "[2]", "result": 9.0}, {"measurement": "herbicidal effect rating", "setting": "ORYSAT Rice, Tebonnet [3]; 0.0313 kg/ha", "result": 2.0}, {"measurement": "herbicidal effect rating", "setting": "ORYSAT Rice, Tebonnet [3]; 0.0625 kg/ha", "result": 3.0}, {"measurement": "herbicidal effect rating", "setting": "ORYSAT Rice, Tebonnet [3]; 0.1250 kg/ha", "result": 4.0}, {"measurement": "herbicidal effect rating", "setting": "ORYSAT Rice, Tebonnet [3]; 0.2500 kg/ha", "result": 5.0}, {"measurement": "herbicidal effect rating", "setting": "ORYSAT Rice, Tebonnet [3]; 0.5000 kg/ha", "result": 7.0}, {"measurement": "herbicidal effect rating", "setting": "[4]; 0.0313 kg/ha", "result": 9.0}, {"measurement": "herbicidal effect rating", "setting": "[4]; 0.0625 kg/ha", "result": 9.0}, {"measurement": "herbicidal effect rating", "setting": "[4]; 0.1250 kg/ha", "result": 9.0}, {"measurement": "herbicidal effect rating", "setting": "[4]; 0.2500 kg/ha", "result": 9.0}, {"measurement": "herbicidal effect rating", "setting": "[4]; 0.5000 kg/ha", "result": 9.0}, {"measurement": "herbicide rating (0-9)", "setting": "[5]", "result": 4.0}, {"measurement": "herbicide rating (0-9)", "setting": "[6]", "result": 7.0}, {"measurement": "herbicide rating (0-9)", "setting": "Corn, Field, Zea mays [7]", "result": 3.0}, {"measurement": "herbicidal effect rating", "setting": "ORYSAT Rice, Tebonnet [8]; 0.1250 kg/ha", "result": 4.0}, {"measurement": "herbicidal effect rating", "setting": "ORYSAT Rice, Tebonnet [8]; 0.2500 kg/ha", "result": 6.0}, {"measurement": "herbicidal effect rating", "setting": "ORYSAT Rice, Tebonnet [8]; 0.5000 kg/ha", "result": 8.0}, {"measurement": "herbicide rating (0-9)", "setting": "[9]", "result": 9.0}, {"measurement": "herbicidal effect rating", "setting": "[10]; 0.0313 kg/ha", "result": 0.0}, {"measurement": "herbicidal effect rating", "setting": "[10]; 0.0625 kg/ha", "result": 0.0}, {"measurement": "herbicidal effect rating", "setting": "[10]; 0.1250 kg/ha", "result": 2.0}, {"measurement": "herbicidal effect rating", "setting": "[10]; 0.2500 kg/ha", "result": 7.0}, {"measurement": "herbicidal effect rating", "setting": "[10]; 0.5000 kg/ha", "result": 7.0}, {"measurement": "herbicidal effect rating", "setting": "CYPIR Rice Flatsedge; 0.0313 kg/ha", "result": 9.0}, {"measurement": "herbicidal effect rating", "setting": "CYPIR Rice Flatsedge; 0.0625 kg/ha", "result": 9.0}, {"measurement": "herbicidal effect rating", "setting": "CYPIR Rice Flatsedge; 0.1250 kg/ha", "result": 9.0}, {"measurement": "herbicidal effect rating", "setting": "CYPIR Rice Flatsedge; 0.2500 kg/ha", "result": 9.0}, {"measurement": "herbicidal effect rating", "setting": "CYPIR Rice Flatsedge; 0.5000 kg/ha", "result": 9.0}, {"measurement": "herbicide rating (0-9)", "setting": "[11]", "result": 9.0}, {"measurement": "herbicide rating (0-9)", "setting": "[12]", "result": 9.0}, {"measurement": "herbicide rating (0-9)", "setting": "[13]", "result": 2.0}, {"measurement": "herbicidal effect rating", "setting": "[14]; 0.1250 kg/ha", "result": 6.0}, {"measurement": "herbicidal effect rating", "setting": "[14]; 0.2500 kg/ha", "result": 9.0}, {"measurement": "herbicidal effect rating", "setting": "[14]; 0.5000 kg/ha", "result": 9.0}]}
